Read-outs that look alike come from different tables or passages of the source.
Molecular target: CCR5 receptors (Homo sapiens, UniProt P51681)
Assay: inhibition of binding of HIV envelope protein (gp120) to CCR5 receptors
Details: procedure of Example 1 of EP 1 118 858 A2
Excerpt: Biol., 60, 147-52 (1996); by using the intracellular calcium mobilisation assays as described by the same authors; and by their ability to inhibit binding of HIV envelope protein (gp120) to CCR5 receptors according to the procedure described in Example 1 of EP 1 118 858 A2 (pp 85-88). Cell lines expressing the receptor of interest include those naturally expressing the receptor, such as PM-1, or IL-2 stimulated peripheral blood lymphocytes (PBL), or a cell engineered to express a recombinant receptor, such as CHO, 300.19, L1.2 or HEK-293.
The ability of the compounds of formula (I) to inhibit binding of HIV envelope protein (gp120) to CCR5 receptors was determined by the procedure described in Example 1 of EP 1 118 858 A2.

[1] = IC50, inhibition of binding of HIV envelope protein (gp120) to CCR5 receptors

CCR5 receptors, sequence (P51681 whole entry): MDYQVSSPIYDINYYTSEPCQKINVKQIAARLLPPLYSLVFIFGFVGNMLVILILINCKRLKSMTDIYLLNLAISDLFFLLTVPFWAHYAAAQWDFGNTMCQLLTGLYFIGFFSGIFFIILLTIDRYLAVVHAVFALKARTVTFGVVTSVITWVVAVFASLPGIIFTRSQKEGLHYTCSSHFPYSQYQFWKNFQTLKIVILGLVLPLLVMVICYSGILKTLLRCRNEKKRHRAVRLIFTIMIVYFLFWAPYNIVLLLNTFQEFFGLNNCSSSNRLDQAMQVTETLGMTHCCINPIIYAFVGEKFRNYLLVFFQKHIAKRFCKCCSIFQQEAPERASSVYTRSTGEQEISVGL

| SMILES | IC50 [1] | IC50 (read-out: IC50, inhibition of binding of HIV envelope protein (gp120) to CCR5 receptors) |
| --- | --- | --- |
| CC(=O)N[C@@H](CCN1C2CCC1CC(n1c(C)nc3c1CN(C(=O)C(C)C)CC3)C2)c1ccccc1 (stereo partly drawn) [Example 9, N-{(1S)-3-[3-endo-(5-Isobutyryl-2-methyl-4,5,6,7-tetrahydro-3H-imidazo[4,5-c]pyridin-3-yl)-8-azabicyclo[3.2.1]oct-8-yl]-1-phenylpropyl}acetamide] | 7 nM | – |
| COC(=O)N1CCc2c(nc(C)n2C2CC3CCC(C2)N3CC[C@H](NC(C)=O)c2cccc(F)c2)C1 (stereo partly drawn) [Example 44, Methyl 1-endo-{8-[(3S)-3-(acetamido)-3-(3-fluorophenyl)propyl]-8-azabicyclo[3.2.1]oct-3-yl}-2-methyl-4,5,6,7-tetrahydro-1H-imidazo[4,5-c]pyridine-5-carboxylate monohydrate] | 14 nM | – |
| COC(=O)N[C@@H](CCN1C2CCC1CC(n1c(C)nc3c1CN(C(C)=O)CC3)C2)c1cccc(F)c1 (stereo partly drawn) [Example 17, Methyl (1S)-3-[3-endo-(5-acetyl-2-methyl-4,5,6,7-tetrahydro-3H-imidazo[4,5-c]pyridin-3-yl)-8-azabicyclo[3.2.1]oct-8-yl]-1-(3-fluorophenyl)propylcarbamate] | 15 nM | – |
| COC(=O)N1CCc2c(nc(C)n2C2CC3CCC(C2)N3CC[C@H](NC(C)=O)c2cccc(F)c2)C1 (stereo partly drawn) [Example 33, Methyl 1-endo-{8-[(3S)-3-(acetylamino)-3-(3-fluorophenyl)propyl]-8-azabicyclo[3.2.1]oct-3-yl}-2-methyl-4,5,6,7-tetrahydro-1H-imidazo[4,5-c]pyridine-5-carboxylate] | 23 nM | – |
| COC(=O)N[C@@H](CCN1C2CCC1CC(n1c(C)nc3c1CCN(C(=O)OC)C3)C2)c1ccccc1 (stereo partly drawn) [Example 30, Methyl 1-endo-(8-{(3S)-3-[(methoxycarbonyl)amino]-3-phenylpropyl}-8-azabicyclo[3.2.1]oct-3-yl)-2-methyl-4,5,6,7-tetrahydro-1H-imidazo[4,5-c]pyridine-5-carboxylate] | – | 7 nM |
